Laboratory results: US20230027854A1, “ISOXAZOLE DERIVATIVES TARGETING TACC3 AS ANTICANCER AGENTS” (A2A Pharmaceuticals, inc., priority 2019, published 2023)

How the values were obtained:
[1] = test system: JIMT-1 cells; assay: JIMT-1 cell growth inhibition / cell viability (SRB assay); assay type: cell-based; settings: Homo sapiens; JIMT-1 cells; read-out: IC50
Description: The ability of the compounds of the present disclosure to treat TACC3-mediated cancers, or associated symptoms or complications thereof, was determined using the following procedures. The compounds of the present disclosure were tested for their activity against cell death induction using a JIMT-1 cell line, which was a cell line having high level of TACC3. The concentration of each compound that was required for half-maximal inhibition of cell proliferation was calculated by a GraphPad Prism (GraphPad Software).

[2] = test system: JIMT-1 cells; assay: Western blot of mitotic arrest, DNA damage and apoptosis markers; assay type: cell-based, human; settings: 24 hours, dose response
Description: JIMT-1, MDA-MB-436, MDA-MB-157 and BT-474 T-DM1R cell lines were tested with respect to their response to these three drugs. […] Although higher KHS101 doses was included, which were used by others (Campo & Breuer, 2018), an induction of these markers was only observed at very high doses.

| Structure (SMILES) | IC50 [1] | induction of mitotic arrest, DNA damage and apoptosis markers [2] |
| --- | --- | --- |
| COc1ccc(-c2cc(Nc3ccnc(N4CCSCC4)n3)on2)cc1 [Compound 40, 3-(4-methoxyphenyl)-N-(2-thiomorpholinopyrimidin-4-yl)isoxazol-5-amine] | 113 nM |  |
| COc1ccc(-c2cc(Nc3ccnc(N4CCCC4)n3)on2)cc1 [Compound 45, 3-(4-methoxyphenyl)-N-(2-(pyrrolidin-1-yl)pyrimidin-4-yl)isoxazol-5-amine] | 105 nM |  |
| CC(C)CNc1ccnc(NCc2csc(-c3ccccc3)n2)n1 [KHS101, reference compound] |  | considerably higher doses |
| COc1ccc(-c2cc(Nc3ccnc(N4CC5CCC(C4)O5)n3)on2)cc1 [Compound 35, N-(2-(8-oxa-3-azabicyclo[3.2.1]octan-3-yl)pyrimidin-4-yl)-3-(4-methoxyphenyl)isoxazol-5-amine] | 3090 nM |  |
| COc1ccc(-c2cc(Nc3ccnc(N4CCC(C(=O)O)CC4)n3)on2)cc1 [Compound 51, 1-(4-((3-(4-methoxyphenyl)isoxazol-5-yl)amino)pyrimidin-2-yl)piperidine-4-carboxylic acid] | > 10000 nM |  |
| COc1ccc(-c2cc(Nc3ccnc(N4CCC(C(F)(F)F)CC4)n3)on2)cc1 [Compound 44, 3-(4-methoxyphenyl)-N-(2-(4-(trifluoromethyl)piperidin-1-yl)pyrimidin-4-yl)isoxazol-5-amine] | 56 nM |  |
| CN(C)c1ccc(-c2cc(Nc3ccnc(N4CCOCC4)n3)on2)cc1 [Compound 21, 3-(4-(dimethylamino)phenyl)-N-(2-morpholinopyrimidin-4-yl)isoxazol-5-amine] | 120 nM |  |
| COc1ccc(-c2cc(Nc3ccnc(N4CCS(=O)(=O)CC4)n3)on2)cc1 [Compound 41, 4-(4-((3-(4-methoxyphenyl)isoxazol-5-yl)amino)pyrimidin-2-yl)thiomorpholine 1,1-dioxide] | > 10000 nM |  |
